Measured values: publication PMC6504873, “High-throughput screening of the Plasmodium falciparum cGMP-dependent protein kinase identified a thiazole scaffold which kills erythrocytic and sexual stage parasites” (Scientific Reports, 2019)

Legend:
TQ PfPKG (PfPKG_T618Q) = target: T1, TQ PfPKG (PfPKG_T618Q) (Plasmodium falciparum, UniProt Q8I719, T618Q); experiment: Kinase Glo enzymatic assay, gatekeeper mutant TQ PfPKG; assay type: biochemical, P. falciparum
T1 construct: His6 (N); host or cells: E. coli BL21
Method: Taking advantage of the availability of more than 3,000 thiazole derivatives among the GSK compound collection, cluster 3 was thoroughly investigated for potent and selective inhibitors of WT PfPKG. […] We explored the binding mode by also testing compounds on the gatekeeper mutant enzyme TQ PfPKG. […] These two time points were chosen to give an indication of the speed of kill of the compounds. […] A preliminary safety test was performed on human AuroraB and LCK kinases which often underpin toxicity issues. […] Further assays for compound characterization included determination of solubility and cytotoxicity (HepG2 inhibition). Thiazoles have been previously identified as human BRaf inhibitors that are used to treat melanoma.
Protein production was outsourced to the Division of Signal Transduction Therapy, University of Dundee. Briefly, the pTRChis expression vectors (Invitrogen) containing an N-terminally His6-tagged PfPKG wildtype and T618Q were used to transform BL21 cells (protocol adapted from[23]). The cells were grown at 37 °C until the OD600 was 0.4–0.6 then the temperature was reduced to 15 °C and the cells were induced with 250 µM IPTG and grown for a further 16–18 hours before harvesting. The His6-PfPKG was purified on Cobalt agarose followed by gel filtration and the protein was dialysed into 25 mM Hepes pH 7.5, 0.1 mM EGTA, 150 mM NaCl, 50% glycerol and 2 mM DTT.
Initial optimization of the PKG assay was performed manually in 384-well plates and analysed with GraFit 7. The buffer for all assays was 25 mM HEPES pH 7.3 (GIBCO), 10 mM MgCl2 (Sigma), 2 mM DTT (Sigma), 0.01 mM cGMP (Sigma), 0.1 mg/ml BSA (Ambion). Enzymatic activity was tested using a luminescence-based kit (Promega KinaseGlo). Addition of the first reagent depletes the unused ATP and addition of the second reagent converts ADP (product of the kinase reaction) to ATP, which is then measured through a luciferin/luciferase reaction. The amount of luminescence is directly proportional to ATP turnover by the kinase. The kit was chosen because it can be miniaturized to small volumes (i.e. 4 µl) in 1536-well plates, for use in HTS.
We used PKA peptide substrate (SCP0212, Sigma-Aldrich) for WT and TQ PfPKG, dissolved in milliQ water at a final concentration of 5 mM, and Long S6 peptide substrate (produced at the University of Dundee, sequence […]) for HuPKGIα, dissolved in water at a final concentration of 30 mM.
We calculated the Michaelis-Menten (Km) constant for ATP and peptide substrate (PKA or Long S6) for all enzymes using GraphPad Prism (Supplementary Figs 2 and 3 and Supplementary Table 3). In order to identify different types of PKG inhibitors, including ATP competitive or non-competitive inhibitors, as well as inhibitors that bind to the peptide substrate pocket, we performed all assays using ATP and peptide substrate at a concentration equal to the Km. We also determined enzyme activity by calculating ATP turnover (Kcat) over the Km (Supplementary Table 3). The Kcat was calculated as (Vmax*slope)/[E] where Vmax is the maximum velocity and [E] is the concentration of the enzyme.
The plates containing the compounds were prepared at GSK in Upper Providence or Stevenage. Compounds were tested at a single final concentration of 10 µM or in a dose response with a range of concentrations starting from 100 μM to 1.6 nM (1 in 3 serial dilutions). Compounds were dispensed in the plates at the required concentration in a 40 nl volume. All plates (1536-well white Greiner) contained 40 nl of DMSO in lanes 11 and 12 (control 1, 100% enzyme activity) and were empty in lanes 35 and 36 (control 2, 0% enzyme activity). The plates were removed from −20 °C 1 hour before starting the assay. Using a Multidrop Combi dispenser (Thermo Scientific), 2 µl of the buffer containing ATP and the substrate were added to all wells then 2 µl of buffer only were added to column 35 and 36. […]

HepG2 cells = experiment: Cytotoxicity assay (CellTiter-Glo); assay type: cell-based; conditions: Homo sapiens; HepG2 cytotoxicity; read-out: HepG2
Method: Cytotoxicity assays were performed on HepG2 cells as previously described. HepG2 cells were removed from a T-175 TC flask using 5 mL Eagle’s MEM (containing 10% FBS, 1% NEAA, 1% penicillin/streptomycin) and dispersed in the medium. Seeding density was checked to ensure that new mono-layers were not more than 50% confluent at the time of harvesting. Cells were added to 500 mL of the same medium at a final density of 1.2 × 10^5 cells/mL. They were then dispensed (25 μL, about 3,000 cells per well) into 384-well clear-bottom plates using a Multidrop Combi dispenser. Test compounds (250 nL) were dispensed into the plates with an EchoH liquid handler prior to addition of the cells. Plates were incubated for 48 h at 37 °C, 5% CO2. After incubation, plates were equilibrated at room temperature for 30 minutes before proceeding to develop the luminescent signal. The CellTiter-GloH Reagent was allowed to equilibrate at room temperature for 30 minutes and added to the plates (25 μL per well) using a Multidrop Combi dispenser. Plates were left for 10 minutes at room temperature for stabilization and then read using a Perkin Elmer ViewLux.

WT PfPKG = target: T2, WT PfPKG (Plasmodium falciparum, UniProt Q8I719); parameters: species or system P. falciparum; conditions: for LE: ligand efficiency; for LLE: lipophilic ligand efficiency
T2 construct: recombinant full length wild type (WT) PfPKG; His6 (N); host or cells: E. coli BL21
From the text: A scoring system was developed to further prioritize interesting compounds. […] Three points were given to compounds that inhibit HuPKGIα at least 3 orders of magnitude less than WT PfPKG. […] We also considered how well the compounds bind to the target by taking into account two physicochemical properties: ligand efficiency (LE, 1.37 x pIC50/number heavy atoms) is a characterization of a compound’s efficiency on a per-heavy-atom basis[51] and lipophilic ligand efficiency (LLE, pIC50 – clogP) is a parameter used in drug design which links potency and lipophilicity in an attempt to estimate drug-likeness[52]. The ClogP coefficient measures lipophilicity. Values of LE ≥ 0.3 and LLE ≥ 5 are typically accepted as good starting points for optimizations efforts.

T2 sequence (Q8I719 whole entry): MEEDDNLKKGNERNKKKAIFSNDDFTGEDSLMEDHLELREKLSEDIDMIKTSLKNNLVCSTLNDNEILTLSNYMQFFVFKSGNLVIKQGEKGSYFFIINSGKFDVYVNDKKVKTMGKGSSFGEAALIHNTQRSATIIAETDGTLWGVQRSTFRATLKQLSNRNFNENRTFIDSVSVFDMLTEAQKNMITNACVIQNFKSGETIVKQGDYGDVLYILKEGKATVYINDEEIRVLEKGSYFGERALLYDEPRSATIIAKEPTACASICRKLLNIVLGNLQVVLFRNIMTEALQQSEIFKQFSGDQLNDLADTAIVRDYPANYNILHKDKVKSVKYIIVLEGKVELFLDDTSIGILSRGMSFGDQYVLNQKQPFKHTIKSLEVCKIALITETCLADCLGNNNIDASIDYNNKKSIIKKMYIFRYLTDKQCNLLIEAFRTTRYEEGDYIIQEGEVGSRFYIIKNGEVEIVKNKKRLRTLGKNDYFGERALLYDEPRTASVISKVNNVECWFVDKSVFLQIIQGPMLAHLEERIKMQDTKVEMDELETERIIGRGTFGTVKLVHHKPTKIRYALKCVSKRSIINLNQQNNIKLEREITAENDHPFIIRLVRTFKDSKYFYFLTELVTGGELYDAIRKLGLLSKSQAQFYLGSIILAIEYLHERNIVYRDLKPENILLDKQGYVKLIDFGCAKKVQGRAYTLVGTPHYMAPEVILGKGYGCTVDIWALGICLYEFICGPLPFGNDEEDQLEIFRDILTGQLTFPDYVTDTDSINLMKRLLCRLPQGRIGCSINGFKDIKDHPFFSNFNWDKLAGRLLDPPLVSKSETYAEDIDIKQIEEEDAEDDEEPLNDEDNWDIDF
T1 sequence (Q8I719 whole entry T618Q): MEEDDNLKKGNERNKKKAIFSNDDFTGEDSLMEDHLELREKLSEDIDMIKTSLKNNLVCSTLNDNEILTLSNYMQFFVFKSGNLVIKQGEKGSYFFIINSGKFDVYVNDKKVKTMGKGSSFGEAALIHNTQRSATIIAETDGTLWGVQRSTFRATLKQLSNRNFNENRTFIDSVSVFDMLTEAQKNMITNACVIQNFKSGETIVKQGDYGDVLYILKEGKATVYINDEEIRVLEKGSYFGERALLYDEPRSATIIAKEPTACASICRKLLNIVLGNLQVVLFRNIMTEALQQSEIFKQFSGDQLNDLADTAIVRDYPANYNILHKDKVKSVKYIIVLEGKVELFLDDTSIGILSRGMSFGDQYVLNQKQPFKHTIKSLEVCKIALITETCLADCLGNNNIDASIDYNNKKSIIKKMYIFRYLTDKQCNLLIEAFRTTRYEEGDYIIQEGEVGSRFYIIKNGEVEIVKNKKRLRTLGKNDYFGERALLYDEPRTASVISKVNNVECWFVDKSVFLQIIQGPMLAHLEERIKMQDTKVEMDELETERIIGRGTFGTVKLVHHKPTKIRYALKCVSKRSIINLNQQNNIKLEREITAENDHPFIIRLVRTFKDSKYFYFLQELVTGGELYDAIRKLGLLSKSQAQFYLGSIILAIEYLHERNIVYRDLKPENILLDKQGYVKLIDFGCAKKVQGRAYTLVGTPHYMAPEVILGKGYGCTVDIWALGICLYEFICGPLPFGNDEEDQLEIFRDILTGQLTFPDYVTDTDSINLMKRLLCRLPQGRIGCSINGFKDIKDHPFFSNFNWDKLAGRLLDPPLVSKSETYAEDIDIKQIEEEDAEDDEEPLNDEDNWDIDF

Structure (SMILES)	IC50 (TQ PfPKG (PfPKG_T618Q)) [µM]	IC50 (HepG2 cells) [µM]	LE (WT PfPKG)	LLE (WT PfPKG)
CCn1cc(-c2ccncn2)c(-c2cccc(NS(=O)(=O)c3cc(F)ccc3F)c2)n1 [Compound 2]	> 100	> 100	0.33	4.2
Cc1ccc(S(C)(=O)=O)cc1Nc1nccc(-c2sc(CC(N)=O)nc2-c2ccccc2)n1 [Compound 3]	19.1	50.1	0.33	6.0
CC(C)(CN)c1cc(-c2ccc(Cl)c(O)c2)c(-c2ccncc2)o1 [Compound 4]	36.7	12.6	0.5	5.5
CCn1c(-c2nonc2N)nc2c(-c3ccccc3)ncc(CN(C)C3CCN(C)CC3)c21 [Compound 5]	21.9	12.6	0.3	4.3
CNS(=O)(=O)c1cccc(Nc2ccnc(Nc3cccc(S(=O)(=O)NC)c3)n2)c1 [Compound 6]	0.188	25.1	0.33	4.5
COc1ccc(-c2c(-c3cccc(C(=O)N4CCN(C)CC4)c3)oc3ncnc(N)c23)cc1 [Compound 7]	14.1	> 100	0.33	5.4
COc1ccc(CCNC(=O)CSc2ncnc3[nH]ncc23)cc1OC [Compound 8]	22.1	> 100	0.37	5.5
COc1cccc(Nc2nc(-c3ccncc3)cc(N3CCN(C)CC3)n2)c1 [Compound 9]	10	5	0.37	3.9
COc1cc(CS(C)(=O)=O)ccc1Nc1nc(Nc2cc(F)ccc2C(N)=O)c2cc[nH]c2n1 [Compound 10]	0.0248	> 100	0.3	4.4
O=C(N[C@@H](CO)c1ccccc1)c1ccc2cncc(-c3cn[nH]c3)c2n1 [Compound 11]	1	> 100	0.36	4.9
NCCNCc1ccc(-c2cc3ccncc3cc2OC2CCNCC2)s1 [Compound 12]	0.851	> 100	0.33	4.7
CNCCOc1cnc(-c2ccoc2C)c(-c2ccc3cnccc3c2)c1 [Compound 13]	1.3	63.1	0.4	5.1
O=C(c1cccc(OCc2cccnc2)c1)N1CCc2sccc2C1CN1CCCCC1 (stereo not drawn) [Compound 14]	0.473	> 100	0.32	2.9
Nc1ccc2c(-c3ccncc3)c(-c3ccc(Cl)c(O)c3)[nH]c2n1 [Compound 15]	24	20	0.44	4.9
Nc1nc(Nc2cccc3cnccc23)nn1C(=O)C1CCCCC1 [Compound 16]	1.8	79.4	0.4	3.6
